# In patent publication US20130052213A1, “NOVEL IMMUNOMODULATORY PEPTIDE” (Novozymes A/S, priority 2011, published 2013):
# No end group written: not given here.
# How the values were obtained:
# [1] = tested on: IL-10; assay: IL-10 production from LPS-stimulated PBMC (cytometric bead array); assay type: cell-based; settings: human PBMCs stimulated with LPS 0.6 or 20 ng/ml; hBD2 100, 10 or 1 pg/ml; Dexamethason 3.5 ng/ml; Infliximab 1 μg/ml; 24 hours
# Description: (§1) Peripheral blood was drawn from healthy volunteers (with approval from the relevant ethical committee in Denmark). Heparinized blood was diluted 1/1 v/v with RPMI and were subjected to Ficoll density centrifugation within 2 h of drawing. Plasma was collected from the top from individual donors and was kept on ice until it was used at 2% in the culture medium (autologous culture medium). Isolated PBMC were resuspended in autologous culture medium and seeded in 96-well culture plates with 255.000 cells per well in a total of 200 μl. PBMC from the same donor were stimulated with 100, 10 or 1 pg/ml of hBD2 (either full-length or cleaved) either alone or together with LPS at 0.6 ng/ml or 20 ng/ml (E. coli, O111:B4, Sigma L4391), as a control on down-regulation of inflammatory cytokines 3.5 ng/ml Dexamethason (Sigma D8893) and 1 μg/ml Infliximab (Centocur B. V., NCI039843LA) was included. The concentrations of these compounds were based on initial titration studies, where the highest possible concentration without effect of viability was used. The supernatants were collected after incubation at 37° C. for 24 hours, and stored at −80° C.° until cytokine measurement. Viability was measured by Alamar Blue (Biosource, DALL 1100) to be sure that anti-inflammatory effects were not due to toxicity.
# TNF and IL-10 production in supernatants was measured by flow cytometry with a human inflammation cytometric bead array (CBA) according to manufacturer's instructions (BDBioSciences) on a FACSarray flow cytometer (BDBiosciences).
# All experiments were performed at least twice on several donors, with representative results shown. The data presented are expressed as mean plus/minus standard deviation (SD). Statistical significance was determined by 2-way ANOVA with the variables being treatment (hBD2, dexamethazone, etc.) and stimulation (LPS) followed by Bonferroni post-test as reported in the table legends. Differences were considered significant for p<0.05.
# [2] = tested on: TNF; assay: TNF production from LPS-stimulated PBMC (cytometric bead array); assay type: cell-based, human; settings: for TNF production (FIG. 2): human PBMCs stimulated with LPS 0.6 or 20 ng/ml, hBD2 100, 10 or 1 pg/ml, 24 hours
# Description: as §1, with “toxicity. TNF and IL-10 production in supernatants was measured by flow cytometry with a human inflammation cytometric bead array (CBA) according to manufacturer's instructions (BDBioSciences) on a FACSarray flow cytometer (BDBiosciences). All experiments were performed at least twice on several donors, with representative results shown. The data presented are expressed as mean plus/minus standard deviation (SD). Statistical significance was determined by 2-way ANOVA with the variables being treatment (hBD2, dexamethazone, etc.) and stimulation (LPS) followed by Bonferroni post-test as reported in the table legends. Differences were considered significant for p<0.05.” for “toxicity.”
# [3] = tested on: rheumatoid arthritis; settings: WO 2010/007168; cited from earlier work
# [4] = tested on: IL-10; settings: human PBMCs stimulated with LPS or another TLR ligand; cited from earlier work
# [5] = tested on: TNF; settings: human PBMCs stimulated with LPS or another TLR ligand; cited from earlier work
Substance,IL-10 production (FIG. 1) [1],"anti-inflammatory activity in vitro compared with full-length hBD2 (FIGS. 1 and 2) ([2]; human PBMC stimulated with LPS, TNF and IL-10 read-outs)","potency relative to full length hBD2 (FIG. 2) ([2]; human PBMC, TNF production, at some concentrations)",TNF production (FIG. 2) [2],therapeutic potential in animal model of rheumatoid arthritis [3],"effect on IL-10, previously seen (WO 2010/007166) [4]","effect on TNF, previously seen (WO 2010/007166) [5]"
"Infliximab: anti-TNF antibody, control for anti-inflammatory effects",down-regulate IL-10,,,,,,
PVTCLKSGAICHPVFCPRRYKQIGTCGLPGTKCCKKP [cleaved hBD2],significantly induced IL-10 production,same anti-inflammatory activity in vitro as full-length hBD2,more potent than full length human beta-defensin 2,significantly reduced TNF production,,,
"full-length hBD2: full length human beta defensin 2, produced recombinantly in E. coli (GIGDPVTCLKSGAICHPVFCPRRYKQIGTCGLPGTKCCKKP; ends and bridges not checked; cysteine pairing not given here; listed as Homo sapiens)",significantly induced IL-10 production,,,significantly reduced TNF production,has shown therapeutic potential,upregulation of IL-10,downregulation of TNF
